Experimental data: patent US12239643B2, “Therapeutic agent for inflammatory diseases, autoimmune diseases, fibrotic diseases, and cancer diseases” (MEIJI SEIKA PHARMA CO., LTD., priority 2018, dated 2025)
Where two headings read alike, the source gives them in different places.

Test system: PDE4
Assay: Evaluation of PDE4 inhibitory activity, scintillation proximity assay
Type: biochemical
Conditions: scintillation proximity assay
In short: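 IC50 was derived from inhibition curves, referenced to an enzyme-free blank and a DMSO-only control. Compound, PDE4 preparation and tritiated cAMP reacted 120 min at RT in Tris-HCl buffer (pH 7.4) with MgCl2, EGTA and BSA; YSi-SPA beads with ZnSO4 bound product before scintillation counting.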

[1] = class symbols of Evaluation 1, read-out: PDE4 Inhibitory Activity (concentration for the inhibition rate of 50%, IC50), Evaluation 1
[2] = read-out: PDE4 Inhibitory Activity (Evaluation 1; concentration for the inhibition rate of 50%)

SMILES | IC50 [1] [nM] | IC50 [2] [nM]
CC(=O)c1cc(-c2nccs2)c2oc(N3CC4CC(C3)N4)nc2c1C(F)(F)F [Example 180, 1-(2-(3,6-Diazabicyclo[3.1.1]heptan-3-yl)-7-(thiazol-2-yl)-4-(trifluoromethyl)benzo[d]oxazol-5-yl)ethan-1-one] | < 100 | –
c1csc(-c2cc(CN3CCOCC3)cc3nc(N4CC5CCC(C4)N5)oc23)n1 [Example 168, 2-(3,8-Diazabicyclo[3.2.1]octan-3-yl)-5-(morpholinomethyl)-7-(thiazol-2-yl)benzo[d]oxazole] | < 100 | –
OC(c1cc(-c2nccs2)c2oc(N3CC4CC(C3)N4)nc2c1OC(F)(F)F)C(F)F (stereo not shown) [Example 207, 1-(2-(3,6-Diazabicyclo[3.1.1]heptan-3-yl)-7-(thiazol-2-yl)-4-(trifluoromethoxy)benzo[d]oxazol-5-yl)-2,2-difluoroethan-1-ol] | – | < 100
CC(O)(c1cc(-c2nccs2)c2oc(N3CC4CC(C3)N4)nc2c1)C(F)(F)F (stereo not shown) [Example 160, 2-(2-(3,6-Diazabicyclo[3.1.1]heptan-3-yl)-7-(thiazol-2-yl)benzo[d]oxazol-5-yl)-1,1,1-trifluoropropan-2-ol] | < 100 | –
CS(=O)(=O)c1cc(-c2nccs2)c2oc(N3CC4CCCC(C3)N4)nc2c1 [Example 47, 2-(3,9-Diazabicyclo[3.3.1]nonan-3-yl)-5-(methylsulfonyl)-7-(thiazol-2-yl)benzo[d]oxazole] | < 100 | –
O=C(O)c1ccc(-c2nccs2)c2oc(N3CC4CC(C3)N4)nc12 [Example 366, 2-(3,6-Diazabicyclo[3.1.1]heptan-3-yl)-7-(thiazol-2-yl)benzo[d]oxazole-4-carboxylic acid] | – | 100 to 1000
C[S+]([O-])c1cc(-c2nccs2)c2oc(N3CC4CCCC(C3)N4)nc2c1 (stereo not shown) [Example 44, 2-(3,9-Diazabicyclo[3.3.1]nonan-3-yl)-5-(methylsulfinyl)-7-(thiazol-2-yl)benzo[d]oxazole] | < 100 | –
FC(F)(F)Oc1c(Cl)cc(-c2ccccn2)c2oc(N3CC4CCC(C3)N4)nc12 [Example 7, 2-(3,8-Diazabicyclo[3.2.1]octan-3-yl)-5-chloro-7-(pyridin-2-yl)-4-(trifluoromethoxy)benzo[d]oxazole] | < 100 | –
CC(C)(O)C(C)(C)OC(c1ccc(-c2nccs2)c2oc(N3CC4CC(C3)N4)nc12)C(F)(F)F (stereo not shown) [Example 280, 3-(1-(2-(3,6-Diazabicyclo[3.1.1]heptan-3-yl)-7-(thiazol-2-yl)benzo[d]oxazol-4-yl)-2,2,2-trifluoroethoxy)-2,3-dimethylbutan-2-ol] | – | < 100
CC(O)(c1ccc(-c2nccs2)c2oc(N3CC4CCC(C3)N4)nc12)C(F)(F)F (stereo not shown) [Example 236, 2-(2-(3,8-Diazabicyclo[3.2.1]octan-3-yl)-7-(thiazol-2-yl)benzo[d]oxazol-4-yl)-1,1,1-trifluoropropan-2-ol] | – | < 100
N#CCOC(c1ccc(-c2nccs2)c2oc(N3CC4CC(C3)N4)nc12)C(F)(F)F (stereo not shown) [Example 226, 2-(1-(2-(3,6-Diazabicyclo[3.1.1]heptan-3-yl)-7-(thiazol-2-yl)benzo[d]oxazol-4-yl)-2,2,2-trifluoroethoxy)acetonitrile] | – | < 100
c1csc(-c2ccc(C3CCC3)c3nc(N4CC5CC(C4)N5)oc23)n1 [Example 414, 2-(3,6-Diazabicyclo[3.1.1]heptan-3-yl)-4-cyclobutyl-7-(thiazol-2-yl)benzo[d]oxazole] | – | < 100
FC(F)(/C=C/c1cccnc1)Oc1ccc(-c2nccs2)c2oc(N3CC4CC(C3)N4)nc12 [Example 406, (E)-2-(3,6-diazabicyclo[3.1.1]heptan-3-yl)-4-((1,1-difluoro-3-(pyridin-3-yl)allyl)oxy)-7-(thiazol-2-yl)benzo[d]oxazole] | – | < 100
COC(C)(c1cc(-c2nccs2)c2oc(N3CC4CCC(C3)N4)nc2c1OC(F)(F)F)C(F)(F)F (stereo not shown) [Example 215, 2-(3,8-Diazabicyclo[3.2.1]octan-3-yl)-7-(thiazol-2-yl)-5-(1,1,1-trifluoro-2-methoxypropan-2-yl)-4-(trifluoromethoxy)benzo[d]oxazole] | – | < 100
Cc1ccc(-c2nccs2)c2oc(N3CC4CCCC(C3)N4)nc12 [Example 27, 2-(3,9-Diazabicyclo[3.3.1]nonan-3-yl)-4-methyl-7-(thiazol-2-yl)benzo[d]oxazole] | < 100 | –
CN(C)C(=O)c1ccc(-c2nccs2)c2oc(N3CC4CCC(C3)N4)nc12 [Example 115, 2-(3,8-Diazabicyclo[3.2.1]octan-3-yl)-N,N-dimethyl-7-(thiazol-2-yl)benzo[d]oxazole-4-carboxamide] | < 100 | –
O=S1(=O)CCN(c2ccc(-c3nccs3)c3oc(N4CC5CC(C4)N5)nc23)CC1 [Example 398, 4-(2-(3,6-Diazabicyclo[3.1.1]heptan-3-yl)-7-(thiazol-2-yl)benzo[d]oxazol-4-yl)thiomorpholine 1,1-dioxide] | – | < 100

SMILES | IC50 [1] [nM] | IC50 [2] [nM]
CC(=O)c1ccc(-c2nccs2)c2oc(N3CC4CC(C3)N4)nc12 [Example 244, 1-(2-(3,6-Diazabicyclo[3.1.1]heptan-3-yl)-7-(thiazol-2-yl)benzo[d]oxazol-4-yl)ethan-1-one] | – | < 100
FC(F)(F)c1ccc(-c2nccs2)c2oc(N3CC4CCCC(C3)N4)nc12 [Example 33, 2-(3,9-Diazabicyclo[3.3.1]nonan-3-yl)-7-(thiazol-2-yl)-4-(trifluoromethyl)benzo[d]oxazole] | < 100 | –
N#CCOc1ccc(-c2nccs2)c2oc(N3CC4CCC(C3)N4)nc12 [Example 82, 2-((2-(3,8-Diazabicyclo[3.2.1]octan-3-yl)-7-(thiazol-2-yl)benzo[d]oxazol-4-yl)oxy)acetonitrile] | < 100 | –
CC(O)C(F)(F)Oc1ccc(-c2nccs2)c2oc(N3CC4CC(C3)N4)nc12 (racemic) [Example 250, 1-((2-(3,6-Diazabicyclo[3.1.1]heptan-3-yl)-7-(thiazol-2-yl)benzo[d]oxazol-4-yl)oxy)-1,1-difluoropropan-2-ol] | – | < 100
OC(c1cc(-c2nccs2)c2oc(N3CC4CCC(C3)N4)nc2c1C(F)(F)F)C(F)F (stereo not shown) [Example 183, 1-(2-(3,8-Diazabicyclo[3.2.1]octan-3-yl)-7-(thiazol-2-yl)-4-(trifluoromethyl)benzo[d]oxazol-5-yl)-2,2-difluoroethan-1-ol] | – | < 100
CC(O)(c1cc(-c2nccs2)c2oc(N3CC4CCCC(C3)N4)nc2c1)C(F)(F)F (stereo not shown) [Example 161, 2-(2-(3,9-Diazabicyclo[3.3.1]nonan-3-yl)-7-(thiazol-2-yl)benzo[d]oxazol-5-yl)-1,1,1-trifluoropropan-2-ol] | < 100 | –
CC(C)(O)COc1ccc(-c2nccs2)c2oc(N3CC4CCC(C3)N4)nc12 [Example 264, 1-((2-(3,8-Diazabicyclo[3.2.1]octan-3-yl)-7-(thiazol-2-yl)benzo[d]oxazol-4-yl)oxy)-2-methylpropan-2-ol] | – | < 100
CC(=O)c1cc(-c2nccs2)c2oc(N3CC4CCC(C3)N4)nc2c1C(F)(F)F [Example 179, 1-(2-(3,8-Diazabicyclo[3.2.1]octan-3-yl)-7-(thiazol-2-yl)-4-(trifluoromethyl)benzo[d]oxazol-5-yl)ethan-1-one] | < 100 | –
CC(C)(O)c1cc(-c2cscn2)c2oc(N3CC4CCC(C3)N4)nc2c1OC(F)(F)F [Example 291, 2-(2-(3,8-Diazabicyclo[3.2.1]octan-3-yl)-7-(thiazol-4-yl)-4-(trifluoromethoxy)benzo[d]oxazol-5-yl)propan-2-ol] | – | < 100
CCOC(c1ccc(-c2nccs2)c2oc(N3CC4CCC(C3)N4)nc12)C(F)(F)F (stereo not shown) [Example 220, 2-(3,8-Diazabicyclo[3.2.1]octan-3-yl)-4-(1-ethoxy-2,2,2-trifluoroethyl)-7-(thiazol-2-yl)benzo[d]oxazole] | – | < 100
FC(F)Oc1ccc(-c2nccs2)c2oc(N3CC4CCC(C3)N4)nc12 [Example 263, 2-(3,8-Diazabicyclo[3.2.1]octan-3-yl)-4-(difluoromethoxy)-7-(thiazol-2-yl)benzo[d]oxazole] | – | < 100
OC(c1cc(-c2nccs2)c2oc(N3CC4CCC(C3)N4)nc2c1)C(F)(F)F (stereo not shown) [Example 139, 1-(2-(3,8-Diazabicyclo[3.2.1]octan-3-yl)-7-(thiazol-2-yl)benzo[d]oxazol-5-yl)-2,2,2-trifluoroethan-1-ol] | < 100 | –
CC(C)(O)C(F)(F)Oc1ccc(-c2ncco2)c2oc(N3CC4CC(C3)N4)nc12 [Example 290, 1-((2-(3,6-Diazabicyclo[3.1.1]heptan-3-yl)-7-(oxazol-2-yl)benzo[d]oxazol-4-yl)oxy)-1,1-difluoro-2-methylpropan-2-ol] | – | < 100
c1csc(-c2ccc(N3CCCC3)c3nc(N4CC5CC(C4)N5)oc23)n1 [Example 415, 2-(3,6-Diazabicyclo[3.1.1]heptan-3-yl)-4-(pyrrolidin-1-yl)-7-(thiazol-2-yl)benzo[d]oxazole] | – | < 100
c1csc(-c2ccc(OC3CCCOC3)c3nc(N4CC5CCC(C4)N5)oc23)n1 (stereo not shown) [Example 262, 2-(3,8-Diazabicyclo[3.2.1]octan-3-yl)-4-((tetrahydro-2H-pyran-3-yl)oxy)-7-(thiazol-2-yl)benzo[d]oxazole] | – | < 100
Oc1cc(-c2nccs2)c2oc(N3CC4CCC(C3)N4)nc2c1 [Example 63, 2-(3,8-Diazabicyclo[3.2.1]octan-3-yl)-7-(thiazol-2-yl)benzo[d]oxazol-5-ol] | < 100 | –
CSc1cc(-c2nccs2)c2oc(N3CC4CC(C3)N4)nc2c1 [Example 40, 2-(3,6-Diazabicyclo[3.1.1]heptan-3-yl)-5-(methylthio)-7-(thiazol-2-yl)benzo[d]oxazole] | < 100 | –
